Laboratory results taken from PMC5218480 (PLoS ONE, 2017).

System: MV-4-11 and HL-60 cells
Assay: Flow cytometry, apoptosis (Annexin V)
Type: cell-based, human
Details: single agent, 96 hours
Description: All compounds and/or solvent DMSO were added concurrently at the indicated doses. Flow cytometry was performed to measure surface level of CD11b, cell cycle distribution, and induction of apoptosis. CD11b and apoptosis were analyzed on a FC500 flow cytometer ([…]) and cell cycle profiled on an Attune NxT (Life Technologies).
Annexin V-positive populations were quantified.

Nc1ccc(-c2cccs2)cc1NC(=O)c1ccc2c(c1)cc(C1CC1)n2CCN1CCOCC1 [ACY-1035]
apoptosis, staining for annexin V: increased staining for annexin V
